Laboratory results: PMC11477000, “Enantioselective Binding of Proton Pump Inhibitors to Alpha1-Acid Glycoprotein and Human Serum Albumin—A Chromatographic, Spectroscopic, and In Silico Study” (International Journal of Molecular Sciences, 2024)
Several values for one entry are separate records, joined by “and”; a condition that tells them apart may be missing. Identical values can stand only once.

Key:
[1] = molecular target: human serum albumin (HSA) (Homo sapiens, UniProt P02768); assay: Bound percentage by HPLC on HSA column, extrapolation to zero organic modifier; assay type: in vitro ADME; settings: for Bound percentage (b%), average: average of IPA, EtOH, MeOH
Chain of human serum albumin (HSA) (P02768 25-609): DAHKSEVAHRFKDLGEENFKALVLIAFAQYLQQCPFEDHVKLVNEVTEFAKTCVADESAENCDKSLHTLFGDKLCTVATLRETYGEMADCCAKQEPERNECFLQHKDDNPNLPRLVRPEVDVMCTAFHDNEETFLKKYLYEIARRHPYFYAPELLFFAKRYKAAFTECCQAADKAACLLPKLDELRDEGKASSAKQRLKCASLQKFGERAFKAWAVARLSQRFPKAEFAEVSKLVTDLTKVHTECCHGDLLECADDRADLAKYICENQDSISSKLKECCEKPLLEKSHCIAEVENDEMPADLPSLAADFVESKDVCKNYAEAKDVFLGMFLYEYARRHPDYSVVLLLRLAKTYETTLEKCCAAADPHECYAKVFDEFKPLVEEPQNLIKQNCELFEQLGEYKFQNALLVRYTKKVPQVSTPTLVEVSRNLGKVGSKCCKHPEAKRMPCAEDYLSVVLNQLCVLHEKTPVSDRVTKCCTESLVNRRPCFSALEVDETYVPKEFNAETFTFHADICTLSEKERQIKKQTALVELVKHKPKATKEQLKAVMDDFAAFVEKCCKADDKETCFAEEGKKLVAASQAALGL
Procedure: (§1) Chromatographic columns containing proteins can be used to determine the percentage of drug binding. A plot of the natural logarithm of the retention factors against the proportion of organic modifiers was created. […] The intercept of these linear equations can be used to calculate the bound percentage according to Equation (4) (see in Section 3.2).
(§2) Chromatographic measurements were carried out on two separate HPLC systems. The AGP binding study was performed on a Waters 2695e chromatographic system paired with a Waters 2996 PDA detector, controlled by Empower 3 FR5 (Waters Corp., Milford, MA, USA), while the HSA binding study was performed on an Agilent 1100 HPLC system, consisting of an inline degasser (G1322A), a quaternary pump (G1311A), an automatic injector (G1329A) paired with sample thermostat (G1330A), a column thermostat (G1316A), and a diode array detector (G1315A) with Agilent Chemstation B04.03-SP2 software (Agilent, Bronnwald, Germany). For the binding studies, two protein-based chiral stationary phases were utilized. The chromatographic binding study for AGP was conducted on a ChromTech Chiral-AGP column (150 mm × 4.0 mm; ChromTech Ltd., Congleton, UK), while the binding study for HSA was performed on a Daicel Chiralpak HSA column (50 mm × 4.0 mm; Daicel Corp., Osaka, Japan). The detection wavelength was 210 nm for all measurements. The stock solutions of PPIs were prepared at a concentration of 1 mg/mL in MeOH. Subsequent dilutions were prepared using water. The injected samples were mixed and diluted from the stock solutions. The final concentration for the eutomer was 0.2 mg/mL, and for the distomer, it was 0.1 mg/mL. A volume of 2 μL was injected. To mitigate the instability of PPIs in aqueous solutions, the samples were kept at a temperature of 4 °C. Cooling the samples to 4 °C prevented significant decomposition for a period of 24 h. After 24 h, new samples were prepared for injection. Chromatographic parameters were calculated based on the following equations. The retention factor (k) was calculated as:(1) k=(tr−t0)/t0 where tr is the retention time of the investigated analyte, and t0 is the dead time, determined as the first peak appearance in the chromatogram. Resolution was calculated based on the following equation:(2) Rs=2(t2−t1)/(w1+w2) where t2 and t1 are the retention times of the second and first eluted enantiomers, respectively, while w is the peak width. The separation factor (α) was calculated as follows:(3) α=k2/k1 where k1 and k2 are the retention factors of the first- and second-eluting enantiomers, respectively. The k values were also used to calculate the protein-bound percentage (b%) using Equation (4):(4) b%=k/1+k×100

[2] = tested on: α1-acid glycoprotein (AGP); assay: Bound percentage by HPLC on AGP column, extrapolation to zero organic modifier; assay type: in vitro ADME, human; settings: for Bound percentage (b%), average: average of IPA, EtOH, MeOH
Procedure: as §1
as §2, with “Cooling the samples to 4 °C prevented significant decomposition for a period of 24 h.” left out

[3] = extrapolation to zero percent EtOH
[4] = extrapolation to zero percent IPA
[5] = extrapolation to zero percent MeOH

Structure (SMILES)	Bound percentage (b%), average [1]	Bound percentage (b%) [1, 3] [%]	Bound percentage (b%) [1, 4] [%]	Bound percentage (b%) [1, 5] [%]	Bound percentage (b%), average [2]	Bound percentage (b%) [2, 3] [%]	Bound percentage (b%) [2, 4] [%]	Bound percentage (b%) [2, 5] [%]
Cc1c(OCC(F)(F)F)ccnc1C[S@+]([O-])c1nc2ccccc2[nH]1 [S-lansoprazole]	94.64% and 94.64 ± 0.89%	94.85	93.67	95.42	96.86% and 96.86 ± 1.79%	96.92	98.62	95.04
Cc1c(OCC(F)(F)F)ccnc1C[S@@+]([O-])c1nc2ccccc2[nH]1 [R-lansoprazole, dexlansoprazole]	92.45% and 92.45 ± 0.59%	92.69	91.77	92.89	97.56% and 97.56 ± 1.39%	97.60	98.93	96.16
